Source: ChEMBL document CHEMBL1201862, “PubChem BioAssay data set” (2004)
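Growth conditions: 96-well plates. Treatment: test compound, 48 hours, 5 concentrations. Analysis: linear interpolation between bracketing concentrations; unreached endpoints set to highest concentration. GI50 marks 50% less growth.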 Calls of active or inactive are those of the source. No stated cut-off is given here; in the data, active = GI50 up to about 1.1 µM and inactive = higher. Residues, ends and D or L forms follow the SMILES beside them. *: point of attachment. Cbz = O=C(OCc1ccccc1)*

Assays:
Assay in all cases: inhibition of tumour cell growth, NCI panel, 48 h
HCC 2998 = tested on: HCC 2998
HL-60 = tested on: HL-60
NCI-H23 = tested on: NCI-H23
NCI/ADR-RES = tested on: NCI/ADR-RES
RPMI-8226 = tested on: RPMI-8226
SNB-19 = tested on: SNB-19
SNB-75 = tested on: SNB-75
SW-620 = tested on: SW-620
TK-10 = tested on: TK-10
UO-31 = tested on: UO-31
CAKI-1 = tested on: CAKI-1
DU-145 = tested on: DU-145
NCI-H460 = tested on: NCI-H460
OVCAR-4 = tested on: OVCAR-4
SK-OV-3 = tested on: SK-OV-3
Malme-3M = tested on: Malme-3M

Row | SMILES | GI50 (HCC 2998) | GI50 (HL-60) | GI50 (NCI-H23) | GI50 (NCI/ADR-RES) | GI50 (RPMI-8226) | GI50 (SNB-19) | GI50 (SNB-75) | GI50 (SW-620) | GI50 (TK-10) | GI50 (UO-31) | GI50 (CAKI-1) | GI50 (DU-145) | GI50 (NCI-H460) | GI50 (OVCAR-4) | GI50 (SK-OV-3) | GI50 (Malme-3M)
1 | CCOC(=O)C(NC(=O)CC)(Nc1cc(C)on1)C(F)(F)F (configuration not stated) | > 100 µM (inactive) | > 100 µM (inactive) | > 100 µM (inactive) | > 100 µM (inactive) | > 100 µM (inactive) | > 100 µM (inactive) | > 100 µM (inactive) | > 100 µM (inactive) | > 100 µM (inactive) | > 100 µM (inactive) | – | – | – | – | – | –
2 | COc1ccc2oc(=O)c(-c3csc(C)n3)cc2c1 | > 100 µM (inactive) | > 100 µM (inactive) | – | – | > 100 µM (inactive) | 28.8 µM (inactive) | 30.5 µM (inactive) | > 100 µM (inactive) | 26 µM (inactive) | 69.2 µM (inactive) | > 100 µM (inactive) | > 100 µM (inactive) | > 100 µM (inactive) | 85.3 µM (inactive) | 28.1 µM (inactive) | –
3 | CC(NC(=O)C(NC(=O)OCc1ccccc1)C(C)C)C(=O)NCC(=O)O (stereo not drawn) (Cbz-Val-Ala-Gly-OH; configuration not given here) | > 100 µM (inactive) | – | > 100 µM (inactive) | > 100 µM (inactive) | > 100 µM (inactive) | > 100 µM (inactive) | – | > 100 µM (inactive) | > 100 µM (inactive) | > 100 µM (inactive) | > 100 µM (inactive) | > 100 µM (inactive) | > 100 µM (inactive) | – | > 100 µM (inactive) | > 100 µM (inactive)
4 | N=C(N)c1ccc(/N=N/c2c(O)ccc3cc(O)ccc23)cc1 | > 100 µM (inactive) | > 100 µM (inactive) | – | > 100 µM (inactive) | > 100 µM (inactive) | > 100 µM (inactive) | – | > 100 µM (inactive) | > 100 µM (inactive) | > 100 µM (inactive) | > 100 µM (inactive) | – | > 100 µM (inactive) | > 100 µM (inactive) | > 100 µM (inactive) | 56.2 µM (inactive)
5 | CC(C)CC(C#CCCOC(=O)c1ccccc1)OC(=O)c1ccccc1 (configuration not stated) | > 10 µM (inactive) | > 10 µM (inactive) | > 10 µM (inactive) | – | – | > 10 µM (inactive) | 0.445 µM (active) | > 10 µM (inactive) | > 10 µM (inactive) | > 10 µM (inactive) | – | > 10 µM (inactive) | > 10 µM (inactive) | – | > 10 µM (inactive) | > 10 µM (inactive)
6 | O=c1c2ccc(Cl)cc2oc2c(CNc3ccc(S(=O)(=O)Nc4nccs4)cc3)cccc12 | > 100 µM (inactive) | – | > 100 µM (inactive) | > 100 µM (inactive) | > 100 µM (inactive) | > 100 µM (inactive) | – | > 100 µM (inactive) | > 100 µM (inactive) | > 100 µM (inactive) | 0.951 µM (active) | > 100 µM (inactive) | – | > 100 µM (inactive) | > 100 µM (inactive) | > 100 µM (inactive)
7 | O=C1Nc2ccccc2C1Cc1ccccc1 (configuration not stated) | > 100 µM (inactive) | > 100 µM (inactive) | > 100 µM (inactive) | – | > 100 µM (inactive) | > 100 µM (inactive) | 0.296 µM (active) | > 100 µM (inactive) | > 100 µM (inactive) | 78.5 µM (inactive) | > 100 µM (inactive) | > 100 µM (inactive) | > 100 µM (inactive) | > 100 µM (inactive) | > 100 µM (inactive) | > 100 µM (inactive)
8 | N=C(N)c1ccc(/C=C/c2ccc(C(=N)N)cc2)cc1 | 90.8 µM (inactive) | – | 78.5 µM (inactive) | 77.3 µM (inactive) | – | > 100 µM (inactive) | 32.1 µM (inactive) | 96.8 µM (inactive) | 24.5 µM (inactive) | > 100 µM (inactive) | 94.6 µM (inactive) | > 100 µM (inactive) | 34.5 µM (inactive) | > 100 µM (inactive) | – | 53 µM (inactive)
